Assay: Biodistribution of the nano-emulsion of Example 1.1 (radioactivity and fluorescence per organ)
Type: in vivo
Method: In the following examples, the radioactivity was counted with the TRiCarb Counter (Ref: Packard, Liquid Scintillation Analyzers; Models 2200CA).
Fluobeam 700 (Fluoptics) is the apparatus with which the whole of the organs from the biodistribution were analyzed in fluorescence as well as the one with which the biodistribution kinetics of the nano-emulsions were established in vivo. This imaging system allows viewing of the fluorescence in spectral bands from 700 to 850 nm for a 650 nm excitation. The apparatus consists of an electric case containing the laser of class 3B, its power supply and an optical head containing the CCD camera.
The nano-emulsions of Example 1 were injected into FVB female and male mice. As a comparison, a mixture of three tracers ([3H]CHE, [14C]CO and DiD) (not formulated as a nano-emulsion) was injected in order to observe the distribution of the tracers in the absence of droplets being used as a distribution carrier.
Tables 6 to 14 provide the biodistribution results of each tracer ([3H]CHE, [14C]CO and DiD) expressed as a percentage of the dose injected per gram of tissue (or [3H]CHE and [14C]CO) or as fluorescence intensity (for DiD) depending on the organ of the mouse, 15 minutes (Table 6), 2 hours (Table 7), 4 hours (Table 8), 6 hours (Table 9), 16 hours (Table 10), 24 hours (Table 11), 72 hours (Table 12), 120 hours (Table 13) and 168 hours (Table 14), after injection into an FVB female mouse of the nano-emulsion of Example 1.1. (nano-emulsion according to the invention comprising the three tracers ([3H]CHE, [14C]CO and DiD).

[1] = 15 min after injection of nano-emulsion of Example 1.1, FVB female mouse
[2] = 2 h after injection of nano-emulsion of Example 1.1, FVB female mouse
[3] = 4 h after injection of nano-emulsion of Example 1.1, FVB female mouse
[4] = 16 h (Table 9 head) after injection of nano-emulsion of Example 1.1, FVB female mouse
[5] = 24 h (Table 10 head) after injection of nano-emulsion of Example 1.1, FVB female mouse
[6] = 48 h (Table 11 head) after injection of nano-emulsion of Example 1.1, FVB female mouse
[7] = 72 h after injection of nano-emulsion of Example 1.1, FVB female mouse
[8] = 120 h after injection of nano-emulsion of Example 1.1, FVB female mouse
[9] = 168 h after injection of nano-emulsion of Example 1.1, FVB female mouse

CCCCCCCCCCCCCCCCCCN1/C(=C/C=C/C=C/C2=[N+](CCCCCCCCCCCCCCCCCC)c3ccccc3C2(C)C)C(C)(C)c2ccccc21.[O-][Cl+3]([O-])([O-])[O-] [DiD, l,r-dioctadécyl-3,3,3′,3′-tetramethylindodicarbocyanine (DiD) perchlorate]
fluorescence intensity, Adrenal glands (MEAN) [1]: 457 photons per pixel, reduced to | fluorescence intensity, Brain (MEAN) [1]: 145 photons per pixel, reduced to | fluorescence intensity, Fat (MEAN) [1]: 147 photons per pixel, reduced to | fluorescence intensity, Heart (MEAN) [1]: 451 photons per pixel, reduced to | fluorescence intensity, Intestine (MEAN) [1]: 300 photons per pixel, reduced to | fluorescence intensity, Kidney (MEAN) [1]: 228 photons per pixel, reduced to | fluorescence intensity, Liver (MEAN) [1]: 979 photons per pixel, reduced to | fluorescence intensity, Lung (MEAN) [1]: 618 photons per pixel, reduced to | fluorescence intensity, Muscle (MEAN) [1]: 1 photons per pixel, reduced to | fluorescence intensity, Ovary (MEAN) [1]: 484 photons per pixel, reduced to | fluorescence intensity, Pancreas (MEAN) [1]: 216 photons per pixel, reduced to | fluorescence intensity, Salivary glands (MEAN) [1]: 59 photons per pixel, reduced to | fluorescence intensity, Spleen (MEAN) [1]: 727 photons per pixel, reduced to | fluorescence intensity, Uterus (MEAN) [1]: 178 photons per pixel, reduced to | fluorescence intensity, Adrenal glands (MEAN) [2]: 1050 photons per pixel, reduced to | fluorescence intensity, Brain (MEAN) [2]: 250 photons per pixel, reduced to | fluorescence intensity, Fat (MEAN) [2]: 247 photons per pixel, reduced to | fluorescence intensity, Heart (MEAN) [2]: 389 photons per pixel, reduced to | fluorescence intensity, Intestine (MEAN) [2]: 637 photons per pixel, reduced to | fluorescence intensity, Kidneys (MEAN) [2]: 473 photons per pixel, reduced to | fluorescence intensity, Liver (MEAN) [2]: 1421 photons per pixel, reduced to | fluorescence intensity, Lung (MEAN) [2]: 727 photons per pixel, reduced to | fluorescence intensity, Muscle (MEAN) [2]: 213 photons per pixel, reduced to | fluorescence intensity, Ovary (MEAN) [2]: 1807 photons per pixel, reduced to | fluorescence intensity, Pancreas (MEAN) [2]: 399 photons per pixel, reduced to | fluorescence intensity, Salivary glands (MEAN) [2]: 288 photons per pixel, reduced to | fluorescence intensity, Spleen (MEAN) [2]: 805 photons per pixel, reduced to | fluorescence intensity, Uterus (MEAN) [2]: 814 photons per pixel, reduced to | fluorescence intensity, Adrenal glands (MEAN) [3]: 1754 photons per pixel, reduced to | fluorescence intensity, Brain (MEAN) [3]: 279 photons per pixel, reduced to | fluorescence intensity, Fat (MEAN) [3]: 522 photons per pixel, reduced to | fluorescence intensity, Heart (MEAN) [3]: 550 photons per pixel, reduced to | fluorescence intensity, Intestine (MEAN) [3]: 974 photons per pixel, reduced to | fluorescence intensity, Kidney (MEAN) [3]: 614 photons per pixel, reduced to | fluorescence intensity, Liver (MEAN) [3]: 1845 photons per pixel, reduced to | fluorescence intensity, Lungs (MEAN) [3]: 925 photons per pixel, reduced to | fluorescence intensity, Muscle (MEAN) [3]: 236 photons per pixel, reduced to | fluorescence intensity, Ovary (MEAN) [3]: 2781 photons per pixel, reduced to | fluorescence intensity, Pancreas (MEAN) [3]: 527 photons per pixel, reduced to | fluorescence intensity, Salivary glands (MEAN) [3]: 516 photons per pixel, reduced to | fluorescence intensity, Spleen (MEAN) [3]: 955 photons per pixel, reduced to | fluorescence intensity, Uterus (MEAN) [3]: 712 photons per pixel, reduced to | fluorescence intensity, Adrenal glands (MEAN) [4]: 2355 photons per pixel, reduced to | fluorescence intensity, Brain (MEAN) [4]: 259 photons per pixel, reduced to | fluorescence intensity, Fat (MEAN) [4]: 532 photons per pixel, reduced to | fluorescence intensity, Heart (MEAN) [4]: 444 photons per pixel, reduced to | fluorescence intensity, Intestine (MEAN) [4]: 1139 photons per pixel, reduced to | fluorescence intensity, Kidney (MEAN) [4]: 627 photons per pixel, reduced to | fluorescence intensity, Liver (MEAN) [4]: 1661 photons per pixel, reduced to | fluorescence intensity, Lungs (MEAN) [4]: 592 photons per pixel, reduced to | fluorescence intensity, Muscle (MEAN) [4]: 289 photons per pixel, reduced to | fluorescence intensity, Ovary (MEAN) [4]: 2915 photons per pixel, reduced to | fluorescence intensity, Pancreas (MEAN) [4]: 564 photons per pixel, reduced to | fluorescence intensity, Salivary glands (MEAN) [4]: 641 photons per pixel, reduced to | fluorescence intensity, Spleen (MEAN) [4]: 978 photons per pixel, reduced to | fluorescence intensity, Uterus (MEAN) [4]: 1759 photons per pixel, reduced to | fluorescence intensity, Adrenal glands (MEAN) [5]: 2624 photons per pixel, reduced to | fluorescence intensity, Brain (MEAN) [5]: 239 photons per pixel, reduced to | fluorescence intensity, Fat (MEAN) [5]: 553 photons per pixel, reduced to | fluorescence intensity, Heart (MEAN) [5]: 288 photons per pixel, reduced to | fluorescence intensity, Intestine (MEAN) [5]: 777 photons per pixel, reduced to | fluorescence intensity, Kidney (MEAN) [5]: 599 photons per pixel, reduced to | fluorescence intensity, Liver (MEAN) [5]: 1675 photons per pixel, reduced to | fluorescence intensity, Lung (MEAN) [5]: 667 photons per pixel, reduced to | fluorescence intensity, Muscle (MEAN) [5]: 161 photons per pixel, reduced to | fluorescence intensity, Ovary (MEAN) [5]: 3173 photons per pixel, reduced to | fluorescence intensity, Pancreas (MEAN) [5]: 446 photons per pixel, reduced to | fluorescence intensity, Salivary glands (MEAN) [5]: 411 photons per pixel, reduced to | fluorescence intensity, Spleen (MEAN) [5]: 774 photons per pixel, reduced to | fluorescence intensity, Uterus (MEAN) [5]: 971 photons per pixel, reduced to | fluorescence intensity, Adrenal glands (MEAN) [6]: 1484 photons per pixel, reduced to | fluorescence intensity, Brain (MEAN) [6]: 51 photons per pixel, reduced to | fluorescence intensity, Fat (MEAN) [6]: 208 photons per pixel, reduced to | fluorescence intensity, Heart (MEAN) [6]: 122 photons per pixel, reduced to | fluorescence intensity, Intestine (MEAN) [6]: 481 photons per pixel, reduced to | fluorescence intensity, Kidney (MEAN) [6]: 555 photons per pixel, reduced to | fluorescence intensity, Liver (MEAN) [6]: 1868 photons per pixel, reduced to | fluorescence intensity, Lungs (MEAN) [6]: 212 photons per pixel, reduced to | fluorescence intensity, Muscle (MEAN) [6]: 32 photons per pixel, reduced to | fluorescence intensity, Ovary (MEAN) [6]: 4018 photons per pixel, reduced to | fluorescence intensity, Pancreas (MEAN) [6]: 202 photons per pixel, reduced to | fluorescence intensity, Salivary glands (MEAN) [6]: 268 photons per pixel, reduced to | fluorescence intensity, Spleen (MEAN) [6]: 342 photons per pixel, reduced to | fluorescence intensity, Uterus (MEAN) [6]: 951 photons per pixel, reduced to | fluorescence intensity, Adrenal glands (MEAN) [7]: 1135 photons per pixel, reduced to | fluorescence intensity, Brain (MEAN) [7]: 43 photons per pixel, reduced to | fluorescence intensity, Fat (MEAN) [7]: 159 photons per pixel, reduced to | fluorescence intensity, Heart (MEAN) [7]: 113 photons per pixel, reduced to | fluorescence intensity, Intestine (MEAN) [7]: 297 photons per pixel, reduced to | fluorescence intensity, Kidney (MEAN) [7]: 365 photons per pixel, reduced to | fluorescence intensity, Liver (MEAN) [7]: 1136 photons per pixel, reduced to | fluorescence intensity, Lungs (MEAN) [7]: 120 photons per pixel, reduced to | fluorescence intensity, Muscle (MEAN) [7]: 3 photons per pixel, reduced to | fluorescence intensity, Ovary (MEAN) [7]: 2397 photons per pixel, reduced to | fluorescence intensity, Pancreas (MEAN) [7]: 102 photons per pixel, reduced to | fluorescence intensity, Salivary glands (MEAN) [7]: 237 photons per pixel, reduced to | fluorescence intensity, Spleen (MEAN) [7]: 330 photons per pixel, reduced to | fluorescence intensity, Uterus (MEAN) [7]: 514 photons per pixel, reduced to | fluorescence intensity, Adrenal gland (MEAN) [8]: 1688 photons per pixel, reduced to | fluorescence intensity, Brain (MEAN) [8]: 90 photons per pixel, reduced to | fluorescence intensity, Fat (MEAN) [8]: 176 photons per pixel, reduced to | fluorescence intensity, Heart (MEAN) [8]: 80 photons per pixel, reduced to | fluorescence intensity, Intestine (MEAN) [8]: 279 photons per pixel, reduced to | fluorescence intensity, Kidney (MEAN) [8]: 383 photons per pixel, reduced to | fluorescence intensity, Liver (MEAN) [8]: 996 photons per pixel, reduced to | fluorescence intensity, Lungs (MEAN) [8]: 53 photons per pixel, reduced to | fluorescence intensity, Muscle (MEAN) [8]: 254 photons per pixel, reduced to | fluorescence intensity, Ovary (MEAN) [8]: 2319 photons per pixel, reduced to | fluorescence intensity, Pancreas (MEAN) [8]: 297 photons per pixel, reduced to | fluorescence intensity, Salivary glands (MEAN) [8]: 120 photons per pixel, reduced to | fluorescence intensity, Spleen (MEAN) [8]: 229 photons per pixel, reduced to | fluorescence intensity, Uterus (MEAN) [8]: 563 photons per pixel, reduced to | fluorescence intensity, Adrenal glands (MEAN) [9]: 660.62 photons per pixel, reduced to | fluorescence intensity, Brain (MEAN) [9]: 40.28 photons per pixel, reduced to | fluorescence intensity, Fat (MEAN) [9]: 164.55 photons per pixel, reduced to | fluorescence intensity, Heart (MEAN) [9]: 117.29 photons per pixel, reduced to | fluorescence intensity, Intestine (MEAN) [9]: 214.02 photons per pixel, reduced to | fluorescence intensity, Kidneys (MEAN) [9]: 391.45 photons per pixel, reduced to | fluorescence intensity, Liver (MEAN) [9]: 676.60 photons per pixel, reduced to | fluorescence intensity, Lungs (MEAN) [9]: 1.35 photons per pixel, reduced to | fluorescence intensity, Muscle (MEAN) [9]: 16.21 photons per pixel, reduced to | fluorescence intensity, Ovary (MEAN) [9]: 1614.45 photons per pixel, reduced to | fluorescence intensity, Pancreas (MEAN) [9]: 125.11 photons per pixel, reduced to | fluorescence intensity, Salivary glands (MEAN) [9]: 216.84 photons per pixel, reduced to | fluorescence intensity, Spleen (MEAN) [9]: 171.93 photons per pixel, reduced to | fluorescence intensity, Uterus (MEAN) [9]: 697.92 photons per pixel, reduced to

Source: patent publication US9707305B2, “Formulas for diagnosing and treating hormone-dependent cancers and cancers of the organs responsible for steroid hormone synthesis” (Commissariat à l'énergie atomique et aux énergies …, priority 2011, dated 2017)
